Drawing on US7507727B2, “Substituted quinobenzoxazine analogs and methods of using thereof” (Cylene Pharmaceuticals, Inc., priority 2003, dated 2009), this text covers IC50 for 59 molecules.

Molecules are shown by their SMILES. Read-outs that look alike come from different tables or passages of the source.

The test concerns the target c-Myc template DNA (c-myc quadruplex). As to the kind of experiment: Quadruplex binding / stop assay (Taq polymerase arrest, capillary electrophoresis).
Where [1] appears, read: read-out: Stop Data c-Myc μM, concentration at which 50% of the DNA was arrested (arrested:full-length 1:1).
Setting [2] is: read-out: S DATA, Table 1D, stop assay data.

As for `CC(C)(C)OC(=O)N[C@@H]1CCN(c2c(F)cc3c(=O)c(C(=O)NCCN4CCCC4)cn4c3c2Oc2c-4ccc3ccccc23)C1` [compound 133], under setting [1], the IC50 amounted to 1.75 µM.

Take `CN1CCN(CCCNC(=O)c2cn3c4c(c(NCCCN5CCOCC5)c(F)cc4c2=O)Oc2cc4c(cc2-3)oc2ccccc24)CC1` [compound 144]: the IC50 under setting [1] turned out to be 1.75 µM.

As to `CN(CCCNc1c(F)cc2c(=O)c(C(=O)NCCC3CCCN3C)cn3c2c1Oc1cc2ccccc2cc1-3)c1ccccc1` (centres unmarked) [compound 1503], the IC50 under setting [2] is 1.75 µM.

In the case of `Nc1ccc2[nH]c3cc4oc5c(NCCN6CCCC6)c(F)cc6c(=O)c(C(=O)O)cn(c4cc3oc2c1)c56` [compound 9], the IC50 under setting [1] was determined as 1.75 µM.

As for `CN1CCCC1CCNC(=O)c1cn2c3c(c(N4CCC(c5cnccn5)C4)c(F)cc3c1=O)Oc1cc(Cl)ccc1-2` (centres unmarked) [compound 1765], the IC50 under setting [2] stood at 3.6 µM.

Regarding `NCCCNC(=O)c1cn2c3c(c(N4CCC(N)C4)c(F)cc3c1=O)Oc1cc3ccccc3cc1-2` (centres unmarked) [compound 1716], the IC50 under setting [2] came out at 0.75 µM.

Regarding `Cc1ncn(C(=O)c2cn3c4c(c(N5CCC(N)C5)c(F)cc4c2=O)Oc2cc4ccccc4cc2-3)c1CO` (centres unmarked) [compound 199], under setting [1], the IC50 came to 1.75 µM.

`CN1CCCC1CCNC(=O)c1cn2c3c(c(NCc4ccoc4)c(F)cc3c1=O)Oc1cc3ccccc3cc1-2` (centres unmarked) [compound 1752]: the IC50 under setting [2] is over 15 µM.

On to `N#Cc1ccc2c(c1)-n1cc(C(=O)NCCN3CCCC3)c(=O)c3cc(F)c(N4CCC(c5cnccn5)C4)c(c31)O2` (centres unmarked) [compound 1778], for which, under setting [2], the IC50 came out at 2.9 µM.

For `CN(C)c1ccccc1CNC(=O)c1cn2c3c(c(N4CCC(N)C4)c(F)cc3c1=O)Oc1cc3ccccc3cc1-2` (centres unmarked) [compound 1715], the IC50 under setting [2] was over 15 µM.

Take `CN(C)/C=N/CCCNC(=O)c1cn2c3c(c(N4CC[C@@H](NC(=O)OC(C)(C)C)C4)c(F)cc3c1=O)Oc1cc3ccccc3cc1-2` [compound 211]: the IC50 under setting [1] stood at 1.75 µM.

For the molecule `CN1CCN(C(=O)c2cn3c4c(c(NCCN5CCOCC5)c(F)cc4c2=O)Oc2ccccc2-3)CC1` [compound 1614], under setting [2], the IC50 was over 15 µM.

On to `O=C(O)c1cn2c3c(c(NCC4CCCO4)c(F)cc3c1=O)Oc1cc3ccccc3cc1-2` (centres unmarked) [compound 1740], for which the IC50 under setting [2] was 8.5 µM.

For `O=C(NCCCn1ccnc1)c1cn2c3c(c(NCCCn4ccnc4)c(F)cc3c1=O)Oc1cc3ccccc3cc1-2` [compound 40], under setting [1], the IC50 was 2.5 µM.

With `CN1CCCN(C(=O)c2cn3c4c(c(N5CCC(N)C5)c(F)cc4c2=O)Oc2cc4ccccc4cc2-3)CC1` (centres unmarked) [compound 197], the IC50 under setting [1] came out at 1.75 µM.

Regarding `CN1CCN(CCCNc2c(F)cc3c(=O)c(C(=O)N4CCN(C)CC4)cn4c3c2Oc2ccccc2-4)CC1` [compound 1582], the IC50 under setting [2] is over 15 µM.

For the molecule `CN(C)CCCCNC(=O)c1cn2c3c(c(N)c(F)c(N4CC[C@H](N)C4)c3c1=O)Oc1cc3ccccc3cc1-2` [compound 190], the IC50 under setting [1] amounted to 1.75 µM.

In the case of `CN1CCCC1CCNC(=O)c1cn2c3c(c(NCC4CCNCC4)c(F)cc3c1=O)Oc1cc3ccccc3cc1-2` (centres unmarked) [compound 1481], the IC50 under setting [2] is 1.75 µM.

With `CN1CCCC1CCNC(=O)c1cn2c3c(c(NC4CN5CCC4CC5)c(F)cc3c1=O)Oc1cc3ccccc3cc1-2` (centres unmarked) [compound 1495], the IC50 under setting [2] amounted to 0.75 µM.

As for `CC(=O)N1CCN(c2c(F)cc3c(=O)c(C(=O)NCCC4CCCN4C)cn4c3c2Oc2cc(Cl)ccc2-4)CC1` (centres unmarked) [compound 1807], the IC50 under setting [2] was over 15 µM.

As to `CN1CCCC1CCNc1c(F)cc2c(=O)c(C(=O)N3CC[C@H](NC(=O)OC(C)(C)C)C3)cn3c4cc5c(cc4oc1c23)c(=O)c1ccccc15` (some centres unmarked) [compound 206], the IC50 under setting [1] was 1.75 µM.

As to `CN1CCCC1CCNC(=O)c1cn2c3c(c(N4CCC(c5cnccn5)C4)c(F)cc3c1=O)Oc1ccc(C#N)cc1-2` (centres unmarked) [compound 1777], the IC50 under setting [2] amounted to 6.8 µM.

Turning to `CC1(C)CC(NC(=O)c2cn3c4c(c(N5CCC(N)C5)c(F)cc4c2=O)Oc2ccccc2-3)CC(C)(C)N1` (centres unmarked) [compound 1626], the IC50 under setting [2] was over 15 µM.

As for `CN1CCC[C@H]1CCNC(=O)c1cn2c3c(c(SCCc4cnccn4)c(F)cc3c1=O)Oc1cc3ccccc3cc1-2` [compound 1770], the IC50 under setting [2] worked out at 4.7 µM.

On to `O=C(c1cn2c3c(c(NCCN4CCCC4)c(F)cc3c1=O)Oc1cc3ccccc3cc1-2)N1CCOCC1` [compound 43], for which the IC50 under setting [1] is 2.5 µM.

With `O=C(Nc1nc2ccccc2s1)c1cn2c3c(c(NCCN4CCCC4)c(F)cc3c1=O)Oc1ccccc1-2` [compound 118], the IC50 under setting [1] was determined as 1.75 µM.

For `COc1ccc2c(CCNc3c(F)cc4c(=O)c(C(=O)NCCC5CCCN5C)cn5c4c3Oc3cc4ccccc4cc3-5)c[nH]c2c1` (centres unmarked) [compound 1667], under setting [2], the IC50 worked out at 1.75 µM.

Consider `CN1CCCC1CCNc1ccc2c(=O)c(C(=O)NCCN3CCOCC3)cn3c2c1Oc1cc2ccccc2cc1-3` (centres unmarked) [compound 271], for which, under setting [1], the IC50 stood at 1.75 µM.

For `CN1CCCC1CCNC(=O)c1cn2c3cc4c(cc3oc3c(N5CC[C@H](NC(=O)OC(C)(C)C)C5)c(F)cc(c1=O)c32)c(=O)c1ccccc14` (some centres unmarked) [compound 421], under setting [1], the IC50 was 0.75 µM.

For the molecule `CN1CCCC1CCNC(=O)c1cn2c3c(c(NCC(O)CO)c(F)cc3c1=O)Oc1cc3ccccc3cc1-2` (centres unmarked) [compound 292], the IC50 under setting [1] came out at 1.75 µM.

In the case of `O=c1c2cn3c4ccccc4oc4c(N5CCC(c6cnccn6)C5)c(F)cc(c2nn1CCN1CCCC1)c43` (centres unmarked) [compound 1772], the IC50 under setting [2] came to 14.1 µM.

As for `Nc1c(F)c(NCCCN2CCOCC2)c2c3c1c(=O)c(C(=O)N1CCC(N)C1)cn3-c1cc3ccccc3cc1O2` (centres unmarked) [compound 232], the IC50 under setting [1] stood at 1.75 µM.

Take `CN(C)CCCCNC(=O)c1cn2c3c(c(NCCN4CCCC4)c(F)cc3c1=O)Oc1cc3c(cc1-2)oc1ccccc13` [compound 161]: the IC50 under setting [1] came out at 1.75 µM.

Take `CCOC(=O)N1CCC(Nc2c(F)cc3c(=O)c(C(=O)NCCC4CCCN4C)cn4c3c2Oc2cc3ccccc3cc2-4)CC1` (centres unmarked) [compound 1485]: the IC50 under setting [2] amounted to 1.75 µM.

As to `CC(C)N1CCN(c2c(F)cc3c(=O)c(C(=O)NCCCN4CCOCC4)cn4c3c2Oc2ccccc2-4)CC1` [compound 1561], under setting [2], the IC50 is over 15 µM.

With `CC(C)(C)OC(=O)NC1CCN(c2c(F)cc3c(=O)c(C(=O)NCCCCN4CCCC4)cn4c3c2Oc2cc3ccccc3cc2-4)C1` (centres unmarked) [compound 323], under setting [1], the IC50 amounted to 1 µM.

With `O=C(NCCN1CCOCC1)c1cn2c3c(c(NCCCN4CCOCC4)c(F)cc3c1=O)Oc1cc3ccccc3cc1-2` [compound 48], under setting [1], the IC50 was 2.5 µM.

In the case of `CC(C)(C)OC(=O)NC1CCN(C(=O)c2cn3c4c(c(N5CCC(NC(=O)OC(C)(C)C)C5)c(F)c(N)c4c2=O)Oc2cc4ccccc4cc2-3)C1` (centres unmarked) [compound 227], the IC50 under setting [1] is 1.75 µM.

Consider `CN1CCCC1CCNC(=O)c1cn2c3c(c(N4CCC(c5ccccn5)C4)c(F)cc3c1=O)Oc1cc3ccccc3cc1-2` (centres unmarked) [compound 442], for which the IC50 under setting [1] amounted to 0.75 µM.

On to `N=C(N)NCCCCNC(=O)c1cn2c3c(c(NCCN4CCCC4)c(F)cc3c1=O)Oc1ccccc1-2` [compound 1633], for which the IC50 under setting [2] was over 15 µM.

For `N=C(N)NCCCCNC(=O)c1cn2c3c(c(NCCN4CCOCC4)c(F)cc3c1=O)Oc1ccccc1-2` [compound 1634], under setting [2], the IC50 is over 15 µM.

In the case of `CC(C)(C)OC(=O)NC1CCN(c2c(F)c(N)c3c(=O)c(C(=O)NCCCN4CCOCC4)cn4c3c2Oc2cc3ccccc3cc2-4)C1` (centres unmarked) [compound 226], under setting [1], the IC50 came to 1.75 µM.

With `CC(CNc1c(F)cc2c(=O)c(C(=O)NCCC3CCCN3C)cn3c2c1Oc1cc2ccccc2cc1-3)c1ccccc1` (centres unmarked) [compound 285], the IC50 under setting [1] stood at 1.75 µM.

For the molecule `CN1CCN(CCCNc2ccc3c(=O)c(C(=O)NCCC4CCCN4C)cn4c3c2Oc2cc3ccccc3cc2-4)CC1` (centres unmarked) [compound 455], the IC50 under setting [1] amounted to 0.75 µM.

As for `COc1ccc(OC)c(CCNc2c(F)cc3c(=O)c(C(=O)NCCC4CCCN4C)cn4c3c2Oc2cc3ccccc3cc2-4)c1` (centres unmarked) [compound 1672], the IC50 under setting [2] was 1.75 µM.

On to `CN1CCCC1CCNc1c(F)cc2c(=O)c(C(=O)N3CCC(N)C3)cn3c4cc5c(=O)c6ccccc6c(=O)c5cc4oc1c23` (centres unmarked) [compound 93], for which the IC50 under setting [1] came out at 2.5 µM.

For the molecule `CC1CCN(CCCNc2c(F)cc3c(=O)c(C(=O)NCCC4CCCN4C)cn4c3c2Oc2cc3ccccc3cc2-4)CC1` (centres unmarked) [compound 438], the IC50 under setting [1] came out at 0.75 µM.

In the case of `CC1(C)CC(NC(=O)c2cn3c4c(c(N5CCC(NC(=O)OC(C)(C)C)C5)ccc4c2=O)Oc2cc4ccccc4cc2-3)CC(C)(C)N1` (centres unmarked) [compound 274], under setting [1], the IC50 came out at 1.75 µM.

As to `NC1CCN(C(=O)c2cn3c4c(c(N5CCC(N)C5)c(F)cc4c2=O)Oc2ccccc2-3)C1` (centres unmarked) [compound 1622], the IC50 under setting [2] was over 15 µM.

As for `CN1CCCC1CCNC(=O)c1cn2c3c(c(SCCc4cnccn4)c(F)cc3c1=O)Oc1ccc(Cl)cc1-2` (centres unmarked) [compound 1787], under setting [2], the IC50 was over 15 µM.

On to `CN1CCCC1CCNCC(=O)N[C@@H]1CCN(c2c(F)cc3c(=O)c(C(=O)N4CCCC4)cn4c3c2Oc2cc3c(cc2-4)oc2ccccc23)C1` (some centres unmarked) [compound 412], for which the IC50 under setting [1] was determined as 0.75 µM.

As for `CN(C)CCCCNC(=O)c1cn2c3c(c(N4CC[C@@H](NC(=O)CCNCCN5CCOCC5)C4)c(F)cc3c1=O)Oc1cc3c(cc1-2)oc1ccccc13` [compound 405], the IC50 under setting [1] was 0.75 µM.

Turning to `CN1CCCC1CCNC(=O)c1cn2c3c(c(NCCC4CCCN4C)c(F)cc3c1=O)Oc1cc3ccccc3cc1-2` (centres unmarked) [compound 124], under setting [1], the IC50 was determined as 1.75 µM.

On to `CN(C)CCCCNc1ccc2c(=O)c(C(=O)NCCN3CCCC3)cn3c2c1Oc1cc2ccccc2cc1-3` [compound 326], for which the IC50 under setting [1] amounted to 1 µM.

For `CN1CCCC1CCNc1c(F)cc2c(=O)c(C(=O)NCCN3CCOCC3)cn3c2c1Oc1cc2ccccc2cc1-3` (centres unmarked) [compound 67], under setting [1], the IC50 was 2.5 µM.

Take `CC(C)N1CCN(c2c(F)cc3c(=O)c(C(=O)NCCN4CCCC4)cn4c3c2Oc2cc(Cl)ccc2-4)CC1` [compound 1797]: the IC50 under setting [2] was 8 µM.

Turning to `CN1CCN(CCCNc2c(F)cc3c(=O)c(C(=O)N4CCN(C)CC4)cn4c3c2Oc2cc3c(cc2-4)oc2ccccc23)CC1` [compound 154], the IC50 under setting [1] was determined as 1.75 µM.

Turning to `CN1CCCC1CCNC(=O)c1cn2c3cc4c(cc3oc3c(NCCN5CCOCC5)c(F)cc(c1=O)c32)c(=O)c1ccccc14` (centres unmarked) [compound 422], the IC50 under setting [1] was 0.75 µM.

With `Nc1ccc(CCNC(=O)c2cn3c4c(c(N5CCC(N)C5)c(F)cc4c2=O)Oc2cc4ccccc4cc2-3)cc1` (centres unmarked) [compound 193], under setting [1], the IC50 worked out at 1.75 µM.
